What all share (assay): ≥ marks a high value that may be exact or a test limit, other limits are often not marked, values filed in µg/mL are converted to µM
Assay [1] has as its system Alcaligenes faecalis ATCC 8750.
Assay [2] relates to Bacillus megaterium CICC 10448.
Assay [3] deals with Bacillus subtilis CICC 10034.
Assay [4] relates to Enterobacter cloacae CICC 21539.
For assay [5], the system named is Escherichia coli CGMCC 3373.
Assay [6] relates to Escherichia coli CICC 10293.
The subject of assay [7] is Escherichia coli CICC 10300.
Assay [8] relates to Escherichia coli CICC 10302.
In assay [9] the test system is Listeria innocua CICC 10417.
The subject of assay [10] is Pseudomonas aeruginosa CICC 21636.
Assay [11] has as its system Salmonella enterica subsp. enterica serovar Paratyphi B CICC 10437.
Assay [12] deals with Serratia marcescens ATCC 4112.
The subject of assay [13] is Staphylococcus aureus CICC 10306.
Assay [14] relates to Staphylococcus aureus CICC 10384.
Assay [15] deals with Aspergillus niger ATCC 16404.
The test system of assay [16] is Candida albicans ATCC 10231.
Assay [17] has as its system Candida glabrata ATCC 15126.
In assay [18] the test system is Enterococcus faecalis PCM 2673.
Assay [19] relates to Escherichia coli ATCC 23506.
Assay [20] concerns Escherichia coli ATCC 25922.
Assay [21] relates to Klebsiella pneumoniae ATCC 700603.
Assay [22] concerns Pseudomonas aeruginosa ATCC 9027.
Assay [23] relates to Staphylococcus aureus ATCC 25923.
Assay [24] relates to Staphylococcus aureus ATCC 9144.
Assay [25] relates to Streptococcus pneumoniae ATCC 49619.
Assay [26] deals with Candida albicans CPCC 400416.
Assay [27] deals with Escherichia coli CPCC 100521.
In assay [28] the test system is Staphylococcus aureus CPCC 100520.
In assay [29] the test system is Bacillus cereus ATCC 11778.
In assay [30] the test system is Pseudomonas aeruginosa ATCC 27853.
Assay [31] deals with Salmonella enterica subsp. enterica serovar Enteritidis ATCC 13076.
The test system of assay [32] is Serratia marcescens ATCC 21202.
Assay [33] relates to Staphylococcus aureus ATCC 29213.
In assay [34] the test system is Streptococcus pyogenes ATCC 19615.
Assay [35] deals with Escherichia coli K-12.
For assay [36], the system named is Klebsiella pneumoniae.
Assay [37] relates to Pseudomonas aeruginosa PA-W14.
Assay [38] deals with Pseudomonas aeruginosa PA-W1.
Assay [39] relates to Pseudomonas aeruginosa PAO1.
Assay [40] concerns Staphylococcus aureus NCTC 8325-4.
Assay [41] relates to Staphylococcus aureus.

Values after ≈ are worked out from the molar mass of the structure shown. Where only a bound is given, the exact number is not on record here.

For orientation: MIC means the smallest concentration in the dilution series that meets the test's criterion for growth inhibition. Higher therefore signals a less susceptible organism.

Take `CC[C@H](C)[C@H](NC(=O)[C@H](C)N)C(=O)NCC(=O)N[C@@H](Cc1cnc[nH]1)C(=O)N[C@@H](CS)C(=O)N[C@@H](CC(C)C)C(=O)NCC(=O)N[C@@H](C)C(=O)N[C@H](C(=O)N[C@@H](CC(C)C)C(=O)O)[C@@H](C)O` [AIGHCLGATL]: the minimal inhibitory concentration (MIC) in [1] is 8.38 µM; in [2] it was 8.38 µM; in [3], at least 33.5 µM; in assay [4], 4.19 µM; in assay [5], 8.38 µM; in assay [6] it was 8.38 µM. Moreover, the MIC in [7] was 8.38 µM; in assay [8], 8.38 µM; in assay [9] it was at least 33.5 µM; in assay [10], 4.19 µM; in assay [11] it was 8.38 µM; in assay [12] it was 8.38 µM. For the same molecule, the MIC in assay [13] and in assay [14] was at least 33.5 µM in each case.

Turning to `CC[C@H](C)[C@H](NC(=O)[C@H](C)NC(=O)[C@H](CCC(=O)O)NC(=O)[C@H](CO)NC(=O)[C@@H](N)Cc1ccccc1)C(=O)N[C@@H](CCCCN)C(=O)N[C@@H](CCCCN)C(=O)N[C@H](C(=O)N[C@H](C(=O)N[C@@H](CC(=O)O)C(=O)N[C@@H](Cc1ccccc1)C(=O)N[C@@H](CC(C)C)C(=O)NCC(N)=O)[C@@H](C)CC)[C@@H](C)CC` [FSEAIKKIIDFLG], the MIC is at least 173 µM in assay [15]; over 173 µM in assay [16]; at least 173 µM in [17]; at least 173 µM in assay [18]; at least 173 µM in assay [19]; 173 µM (≈ 256 µg/mL) in assay [20]. Moreover, the minimum inhibitory concentration (MIC) in assay [21] was 86.4 µM (≈ 128 µg/mL); in assay [22], over 173 µM; in assay [23], over 173 µM; in [24], at least 173 µM; in [25], at least 173 µM.

As for `CC[C@H](C)[C@H](N)C(=O)N[C@H](C(=O)NCC(=O)N1CCC[C@H]1C(=O)N[C@H](C(=O)N[C@@H](CC(C)C)C(=O)NCC(=O)N[C@@H](CC(C)C)C(=O)N[C@H](C(=O)NCC(=O)N[C@@H](CCCCN)C(=O)N[C@@H](C)C(=O)N[C@@H](CC(C)C)C(=O)NCC(=O)NCC(=O)N[C@@H](CC(C)C)C(=O)N[C@@H](CC(C)C)C(N)=O)[C@@H](C)CC)C(C)C)[C@@H](C)CC` [IIGPVLGLIGKALGGLL], the figures for the MIC in assay [26], in assay [27] and in [28] were at least 160 µM, at least 639 µM and at least 160 µM, respectively.

Take `CSCC[C@H](NC(=O)[C@H](CO)NC(=O)[C@H](CS)NC(=O)[C@@H](NC(=O)[C@H](CCC(=O)O)NC(=O)[C@H](CC(C)C)NC(=O)[C@H](CC(C)C)NC(=O)[C@@H]1CCCN1C(=O)[C@H](CC(C)C)NC(=O)[C@@H](N)C(C)C)[C@@H](C)O)C(=O)N[C@H](C(=O)N[C@@H](CS)C(=O)N[C@@H](Cc1c[nH]c2ccccc12)C(=O)N[C@@H](CCC(=O)O)C(=O)N[C@@H](CC(N)=O)C(=O)N[C@@H](CC(N)=O)C(=O)N[C@@H](CCC(N)=O)C(=O)N[C@H](C(=O)N[C@@H](Cc1ccccc1)C(=O)NCC(=O)N[C@@H](CCCCN)C(=O)O)[C@@H](C)O)[C@@H](C)O` [VLPLLETCSMTCWENNQTFGK]: the MIC is at least 41.4 µM in [29]; over 41.4 µM in assay [20]; over 41.4 µM in [21]; over 41.4 µM in assay [30]; at least 41.4 µM in [31]; at least 41.4 µM in assay [32]. For the same molecule, the MIC in [33] is over 41.4 µM; in assay [34] it was at least 41.4 µM.

For the molecule `NCCCC[C@H](NC(=O)[C@H](CCCCN)NC(=O)[C@H](Cc1c[nH]c2ccccc12)NC(=O)[C@H](Cc1c[nH]c2ccccc12)NC(=O)[C@H](CCCCN)NC(=O)[C@H](CCCCN)NC(=O)[C@H](Cc1c[nH]c2ccccc12)NC(=O)[C@H](Cc1c[nH]c2ccccc12)NC(=O)[C@H](CCCCN)NC(=O)[C@H](CCCCN)NC(=O)[C@@H](N)Cc1c[nH]c2ccccc12)C(=O)N[C@@H](Cc1c[nH]c2ccccc12)C(N)=O` [WKKWWKKWWKKW], the minimal inhibitory concentration (MIC) in assay [35] worked out at 15.6 µM (≈ 29.7 µg/mL); in [36], 15.6 µM (≈ 29.7 µg/mL); in assay [37], 31.3 µM (≈ 59.6 µg/mL); in [38] it was 15.6 µM (≈ 29.7 µg/mL); in [39] it was 15.6 µM (≈ 29.7 µg/mL); in assay [40], 7.81 µM (≈ 14.9 µg/mL). Besides, in [41], the MIC was 7.81 µM (≈ 14.9 µg/mL).

Values taken from DBAASP.
